Data on one molecule can be found in patent US20190070165A1, “N-HYDROXYISOQUINOLINEDIONE INHIBITORS OF HBV REPLICATION” (Saint Louis University, priority 2016, published 2019).

“Also recorded” adds a separate entry of the source.

One assay deals with HBV RNaseH (Hepatitis B virus genotype D subtype ayw, UniProt P03156). The conditions noted are these: Table 3, compounds at 100, 60 and 20 μM; compounds 1-91 and 138-140 previously reported (Cai et al., 2014).
A further assay concerns HSV-1. Kind of assay: HSV-1 replication inhibition assay in Vero cells. The assay is classed as cell-based, herpes simplex virus 1. The note with it: Human alphaherpesvirus 1, 24 h; 5 μM, Vero cells; read-out: HSV-1 suppression (log10 at 5 μM), class symbol.
The next assay deals with HBV replication. Kind of assay: HBV replication inhibition assay in HepDES19 cells (strand-preferential q-PCR). Type of assay: cell-based, Hepatitis B virus.
In a further assay the target is T1, HBV polymerase (Hepatitis B virus genotype D subtype ayw, UniProt P03156).
T1 construct: expressed in transfected cells; host or cells: HepDES19 (HepG2 with a stably transfected HBV genotype D genome)
In words: Endogenous polymerase reaction (EPR) in isolated HBV capsids. The assay is classed as biochemical. The conditions noted are these: inhibitors at 4× EC50; #138 and #211 at 30 μM; ddTTP 5.7 μM. An excerpt: Anti-RNaseH activity is implied from their preferential suppression of the plus-polarity DNA strand (FIG. 4), but strand-preferential inhibition could also result from inhibiting the polymerase also. This is because positive-polarity DNA synthesis can be suppressed both directly by inhibiting the RNaseH enzyme and indirectly by reducing the amount of negative-polarity DNA strand that templates the positive-polarity strand, whereas minus-polarity DNA synthesis can only be suppressed by chain termination. To determine if the efficacy of these compounds was due to inhibition of the HBV polymerase, capsids isolated from HepDES19 cells were tested in the endogenous polymerase reaction (EPR) to measure DNA chain elongation by the HBV polymerase along the HBV nucleic acids within the capsids. Isolated HBV capsids were supplied with dATP, dTTP, dGTP, and [α^32P]dCTP in the presence of inhibitors at 4× their EC50 values; negative control compounds #138 and #211 were tested at 30 μM. 1% DMSO was used as a vehicle control, and ddTTP (5.7 μM) was the positive control polymerase inhibitor. Samples were incubated at 37° C. for 7 hours to permit DNA chain elongation by the encapsidated HBV polymerase. Nucleic acids were purified, resolved on a 0.8% agarose gel and detected by autoradiography. DNAs from HBV capsids treated with the compounds incorporated ^32P similarly to DMSO control (FIG. 5).
HBV cores were harvested from HepDES19 cells grown in the absence of tetracycline for 20 days using polyethylene glycol 8000 precipitation (Guo et al., 2003). Cells were rinsed in PBS and lysed in 1 mL core lysis buffer with 2 μL of protease inhibitor cocktail (Sigma) at room temperature for 10 minutes. Cell lysates were collected and 10 mM CaCl2) was added. The lysate was centrifuged for 5 minutes at 21,000 g, the supernatant was incubated with 150 U of micrococcal nuclease at 37° C. for 60 minutes, and then 27 mM EDTA was added to stop the reaction. 333 μL of 26% PEG8000 was added to precipitate core particles and incubated at 4° C. for 6 hours. The samples were centrifuged at 21,000 g for 20 minutes at 4° C. The supernatant was removed and the pellet was resuspended in 250 μL of 10 mM Tris buffer pH 7.5. Cores were stored at −80° C.
The endogenous polymerase reaction was done using a modified procedure from (Nguyen et al., 2007). […] These nucleic acids were dissolved in tris-EDTA buffer, resolved on a 0.8% agarose gel, transferred to a HyBondN membrane, and detected by autoradiography. Band intensities for each experiment were quantified using Image J and percent inhibition was calculated relative to the DMSO-treated reactions. Statistical significance of variation in band intensities was evaluated using a one-way ANOVA with a Dunnett post hoc analysis, with p=0.05 indicating significance.

HBV RNaseH, sequence (P03156 671-832): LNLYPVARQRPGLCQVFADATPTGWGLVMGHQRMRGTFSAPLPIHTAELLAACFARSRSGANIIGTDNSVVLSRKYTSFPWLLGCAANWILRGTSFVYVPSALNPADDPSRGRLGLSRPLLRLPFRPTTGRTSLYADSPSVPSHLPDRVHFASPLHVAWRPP
T1 sequence (P03156 whole entry): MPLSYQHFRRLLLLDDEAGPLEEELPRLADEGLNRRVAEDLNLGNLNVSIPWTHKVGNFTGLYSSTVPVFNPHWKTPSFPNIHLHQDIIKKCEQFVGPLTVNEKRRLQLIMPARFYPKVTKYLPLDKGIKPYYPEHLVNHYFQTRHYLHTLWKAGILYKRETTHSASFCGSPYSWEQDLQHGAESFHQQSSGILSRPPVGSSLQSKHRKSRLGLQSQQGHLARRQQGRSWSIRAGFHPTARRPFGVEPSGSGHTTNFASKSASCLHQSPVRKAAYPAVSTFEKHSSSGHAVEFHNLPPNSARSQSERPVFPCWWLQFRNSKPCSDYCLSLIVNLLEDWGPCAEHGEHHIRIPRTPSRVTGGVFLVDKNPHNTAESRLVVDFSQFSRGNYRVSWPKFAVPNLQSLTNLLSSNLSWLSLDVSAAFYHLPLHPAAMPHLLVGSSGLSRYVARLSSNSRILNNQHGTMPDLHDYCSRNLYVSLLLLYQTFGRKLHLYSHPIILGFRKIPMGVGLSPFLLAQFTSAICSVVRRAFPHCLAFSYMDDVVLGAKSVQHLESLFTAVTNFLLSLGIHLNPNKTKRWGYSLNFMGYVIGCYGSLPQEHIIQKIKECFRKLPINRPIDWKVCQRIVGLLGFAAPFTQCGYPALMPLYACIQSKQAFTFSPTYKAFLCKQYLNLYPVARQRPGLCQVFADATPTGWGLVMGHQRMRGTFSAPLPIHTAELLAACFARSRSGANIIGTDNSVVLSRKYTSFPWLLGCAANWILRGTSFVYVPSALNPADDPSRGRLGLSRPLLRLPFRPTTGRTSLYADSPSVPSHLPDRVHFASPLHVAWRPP
Protocol for HBV RNaseH: RNaseH expression and purification. […] The enriched extracts were dialyzed into 50 mM HEPES pH 7.3, 300 mM NaCl, 20% glycerol, and 5 mM DTT and stored in liquid nitrogen.
Oligonucleotide-directed RNA cleavage assay. […] This mixture was incubated with test compounds in 50 mM Tris pH 8.0, 190 mM NaCl, 5 mM MgCl2, 3.5 mM DTT, 0.05% NP40, 6% glycerol, and 1% DMSO at 42° C. for 90 minutes. Cleavage products were resolved by denaturing polyacrylamide gel electrophoresis, detected by autoradiography, and quantified using ImageJ. Non-specific background values were determined from the incorrect oligonucleotide negative control lane and subtracted from all experimental values. IC50 values were then calculated with GraphPad Prism using three-parameter log(inhibitor) vs. response non-linear curve fitting with the curve minimum set to zero to reflect background subtraction.
The HBV RNaseH inhibition activity of the 16 previously untested compounds was examined using an oligonucleotide-directed cleavage assay. Compounds were incubated with the HBV RNaseH, a ^32P-labeled RNA substrate plus a complementary DNA oligonucleotide and compounds at 100, 60, and 20 μM and the amount of the RNA cleavage products was measured following resolution on an acrylamide gel.
Briefly, a ^32P-labeled RNA was combined with a DNA oligonucleotide and the RNA:DNA substrate was incubated in the presence of the RNaseH and test compounds in 50 mM tris pH 8.0, 190 mM NaCl, 5 mM MgCl2, 3.5 mM DTT, 0.05% NP40, 6% glycerol, and 1% DMSO at 42° C. for 90 minutes. The products were resolved by gel electrophoresis and detected by audioradioagraphy.

Consider `O=C1c2ccccc2C(=O)N1O` [Compound 138], for which, on HBV RNaseH, the “Inhibition of HBV RNaseH, Oligonucleotide directed cleavage assay” value is on record as “− (No inhibition detected at 100 μM)”. Besides, the log reduction at 5 µM in the assay with HSV-1 is < 1. Further, the “HBV replication inhibition / activity” value with HBV replication (HepDES19 cells) was “does not inhibit HBV replication; also recorded: inactive”. In addition, the “HBV replication inhibition (qualitative)” value in the assay on HBV replication (Table 3, qualitative screen at 20 μM) is on record as “− (No inhibition detected at 20 μM)”. For the same molecule, on HBV polymerase, the “effect on 32P incorporation in EPR” value is “None of the HBV inhibitors or the two negative control compounds (#138 and 211) significantly altered incorporation”.
